This is an account of results in patent US10351525B2, “Beta lactamase inhibitors” (Oxford University Innovation Limited, priority 2014, dated 2019).

In general, MIC refers to the lowest concentration found to suppress growth.

Data set [1] relates to Galleria mellonella wax moth larvae. Nature of the data set: In vivo toxicity in wax moth larvae model. The conditions noted are these: doses up to 80 mg/kg.
For data set [2], the system named is K. pneumoniae 177. The data set can be described thus: MIC of MEM with and without ML302F (1:8), VIM-1 producer. The conditions noted are these: Klebsiella pneumoniae; K. pneumoniae 177 (VIM-1); MEM alone or with ML302F (1:8). In kind it is cell-based. The protocol: (§1) In a further study, antimicrobial activities of MEM and ML302F alone and in combination were assessed in-vitro against 31 VIM-producing clinical isolates.

Data set [3] relates to K. pneumoniae GR54. Described as above. The class given is cell-based. The settings on record: Klebsiella pneumoniae. On the procedure:
as §1

Data set [4] has as its system P. stuartii 70. The data set is described as above. The class given is cell-based. The settings on record: Providencia stuartii; P. stuartii 70 (VIM-1); MEM alone or with ML302F (1:8). On the procedure: as §1
Data set [5] has as its system P.. stuartii 67. Described as above. The class given is cell-based. The conditions noted are these: Providencia stuartii; P. stuartii 67 (VIM-1); MEM alone or with ML302F (1:8). On the procedure:
as §1

For data set [6], the system named is P. aeruginosa 11 (13). Nature of the data set: MIC of MEM with and without ML302F (1:8), VIM-2 producer. The class given is cell-based. The settings on record: Pseudomonas aeruginosa; P. aeruginosa 11 (13) (VIM-2); MEM alone or with ML302F (1:8). On the procedure: as §1
In data set [7] the test system is P. aeruginosa 11 (14). Described as above. The settings on record: Pseudomonas aeruginosa. In kind it is cell-based. On the procedure: as §1
Data set [8] has as its system P. aeruginosa 12 (14). The description is as above. In kind it is cell-based. The conditions noted are these: Pseudomonas aeruginosa. On the procedure:
as §1

For data set [9], the system named is P. aeruginosa 13 (14). The data set is described as above. The class given is cell-based. The conditions noted are these: Pseudomonas aeruginosa; P. aeruginosa 13 (14) (VIM-2); MEM alone or with ML302F (1:8). On the procedure: as §1
Data set [10] has as its system P. aeruginosa 14 (14). The description is as above. The class given is cell-based. The settings on record: Pseudomonas aeruginosa; P. aeruginosa 14 (14) (VIM-2); MEM alone or with ML302F (1:8). The protocol:
as §1

The subject of data set [11] is P. aeruginosa 15 (14). The description is as above. The class given is cell-based. The settings on record: Pseudomonas aeruginosa; P. aeruginosa 15 (14) (VIM-2); MEM alone or with ML302F (1:8). On the procedure:
as §1

Data set [12] concerns P. aeruginosa 16 (14). The data set is described as above. The class given is cell-based. The settings on record: Pseudomonas aeruginosa; P. aeruginosa 16 (14) (VIM-2); MEM alone or with ML302F (1:8). The protocol:
as §1

For data set [13], the system named is P. aeruginosa 27 (14). The description is as above. In kind it is cell-based. The conditions noted are these: Pseudomonas aeruginosa; P. aeruginosa 27 (14) (VIM-2); MEM alone or with ML302F (1:8). On the procedure:
as §1

Data set [14] deals with P. aeruginosa 3 (13). Described as above. In kind it is cell-based. The settings on record: Pseudomonas aeruginosa; P. aeruginosa 3 (13) (VIM-2); MEM alone or with ML302F (1:8). On the procedure:
as §1

Data set [15] relates to P. aeruginosa 30. The data set is described as above. The class given is cell-based. The conditions noted are these: Pseudomonas aeruginosa; P. aeruginosa 30 (VIM-2); MEM alone or with ML302F (1:8). The protocol: as §1
For data set [16], the system named is P. aeruginosa 47. The description is as above. The class given is cell-based. The conditions noted are these: Pseudomonas aeruginosa; P. aeruginosa 47 (VIM-2); MEM alone or with ML302F (1:8). On the procedure: as §1
In data set [17] the test system is P. aeruginosa 50. The description is as above. The class given is cell-based. The settings on record: Pseudomonas aeruginosa; P. aeruginosa 50 (VIM-2); MEM alone or with ML302F (1:8). On the procedure: as §1
Data set [18] deals with P. aeruginosa 6 (14). Described as above. The class given is cell-based. The conditions noted are these: Pseudomonas aeruginosa. On the procedure:
as §1

Data set [19] has as its system P. aeruginosa 8 (13). The description is as above. The conditions noted are these: Pseudomonas aeruginosa. The class given is cell-based. On the procedure:
as §1

Data set [20] relates to P. aeruginosa 9 (13). The description is as above. The class given is cell-based. The settings on record: Pseudomonas aeruginosa. The protocol:
as §1

Data set [21] concerns P. aeruginosa GR57. The description is as above. In kind it is cell-based. The settings on record: Pseudomonas aeruginosa; P. aeruginosa GR57 (VIM-2); MEM alone or with ML302F (1:8). On the procedure:
as §1

The subject of data set [22] is P. aeruginosa GR58. Described as above. In kind it is cell-based. The conditions noted are these: Pseudomonas aeruginosa; P. aeruginosa GR58 (VIM-2); MEM alone or with ML302F (1:8). The protocol: as §1
Data set [23] relates to P. aeruginosa GR62. The data set is described as above. The class given is cell-based. The settings on record: Pseudomonas aeruginosa; P. aeruginosa GR62 (VIM-2); MEM alone or with ML302F (1:8). The protocol: as §1
For data set [24], the system named is P. aeruginosa GR64. Described as above. The class given is cell-based. The settings on record: Pseudomonas aeruginosa; P. aeruginosa GR64 (VIM-2); MEM alone or with ML302F (1:8). The protocol: as §1
Data set [25] concerns E. cloacae 102. Nature of the data set: MIC of MEM with and without ML302F (1:8), VIM-4 producer. The class given is cell-based. The conditions noted are these: Enterobacter cloacae; E. cloacae 102 (VIM-4); MEM alone or with ML302F (1:8). On the procedure: as §1
For data set [26], the system named is K. oxytoca 126. The data set is described as above. In kind it is cell-based. The conditions noted are these: Klebsiella oxytoca; K. oxytoca 126 (VIM-4); MEM alone or with ML302F (1:8). The protocol: as §1
Data set [27] has as its system K. oxytoca 95. The data set is described as above. In kind it is cell-based. The conditions noted are these: Klebsiella oxytoca; K. oxytoca 95 (VIM-4); MEM alone or with ML302F (1:8). The protocol: as §1
In data set [28] the test system is K. pneumoniae 101. The description is as above. In kind it is cell-based. The conditions noted are these: Klebsiella pneumoniae; K. pneumoniae 101 (VIM-4); MEM alone or with ML302F (1:8). The protocol: as §1
For data set [29], the system named is K. pneumoniae 128. The data set is described as above. The conditions noted are these: Klebsiella pneumoniae; K. pneumoniae 128 (VIM-4); MEM alone or with ML302F (1:8). The class given is cell-based. The protocol: as §1
The test system of data set [30] is K. pneumoniae 196. The data set is described as above. The class given is cell-based. The conditions noted are these: Klebsiella pneumoniae; K. pneumoniae 196 (VIM-4); MEM alone or with ML302F (1:8). The protocol:
as §1

With `O=C(O)C(S)=Cc1c(Cl)ccc(Cl)c1Cl` (racemic) [ML302F, 2-Mercapto-3-(2,3,6-trichlorophenyl)acrylic acid], the In vivo toxicity result in [1] (G. mellonella, injection) is on record as “non-toxic”. Further, the “Survival of all larvae” value in data set [1] (injection into hemocoel, at 96 hrs) turned out to be 100%.

On to `C[C@@H](O)[C@H]1C(=O)N2C(C(=O)O)=C(S[C@@H]3CN[C@H](C(=O)N(C)C)C3)[C@H](C)[C@H]12` [Meropenem, meropenem], for which the minimal inhibitory concentration (MIC) in data set [2] turned out to be 1 µg/mL; in data set [3], 128 µg/mL; in data set [4], 8 µg/mL; in [5] it was 8 µg/mL; in [6], 32 µg/mL; in data set [7] it was 128 µg/mL. For the same molecule, the minimum inhibitory concentration (MIC) in data set [8] worked out at 128 µg/mL; in data set [9], 32 µg/mL; in [10], 64 µg/mL; in data set [11], 64 µg/mL; in [12], 64 µg/mL; in data set [13] it was 64 µg/mL. Also, the minimum inhibitory concentration (MIC) in data set [14] worked out at 64 µg/mL; in data set [15] it was 64 µg/mL; in [16], 32 µg/mL; in data set [17], 32 µg/mL; in [18], 128 µg/mL; in data set [19] it was 128 µg/mL. In addition, the MIC in [20] was found to be 128 µg/mL; in data set [21], 32 µg/mL; in data set [22], 32 µg/mL; in data set [23], 32 µg/mL; in data set [24], 32 µg/mL; in [25], 32 µg/mL. For the same molecule, the MIC amounted to 32 µg/mL in data set [26]; 32 µg/mL in [27]; 32 µg/mL in data set [28]; 4 µg/mL in [29]; 16 µg/mL in data set [30].
